Our source for the Ki and Potency values is ChEMBL document CHEMBL1127207, “Synthesis of ingenol analogs wth affinity for protein kinase C” (Bioorg Med Chem Lett, 1993).

Test [1] has as its target T1, Protein kinase C alpha type (Homo sapiens, UniProt P17252). Description: Displacement of [3H]PDBU from protein kinase C-alpha (Inactive).
The target in test [2] is T1, Protein kinase C alpha type. Description: Displacement of [3H]-PDBU from protein kinase C-alpha. For orientation: In a radioligand displacement assay an active substance lowers the binding of a labelled ligand.
For test [3], the system named is Mus musculus. The test can be described thus: Tested in vivo for inflammatory potency in the mouse ear. It counts as functional.
Test [4] has as its target T1, Protein kinase C alpha type. The test can be described thus: Displacement of [3H]PDBU from protein kinase C-alpha.

The Ki is the dissociation constant of the complex between target and ligand, obtained from inhibition or displacement. Turning to `CC1=C[C@@]23CCCC[C@@H](C=C(CO)[C@@H](O)[C@]2(O)[C@H]1O)C3=O`, the inhibitory constant (Ki) result in test [1] was “Not Active”.

`CC1=CC23C(=O)[C@@H](C=C(CO)[C@@H](O)[C@]2(O)[C@H]1O)[C@H]1[C@@H](C[C@H]3C)C1(C)C` registered a Ki in test [2] of 240 nM.

The compound `CC1=CC23C(=O)[C@@H](C=C(COC(=O)c4ccccc4)[C@@H](O)[C@]2(O)[C@H]1OC(=O)c1ccccc1)[C@H]1[C@@H](C[C@H]3C)C1(C)C` showed a Potency in test [3] of 0.054 nM.

In test [4], `CC1=CC23C(=O)[C@@H](C=C(CO)[C@@H](O)[C@]2(O)[C@H]1OC(=O)c1ccccc1)[C@H]1[C@@H](C[C@H]3C)C1(C)C` came in with a Ki of 0.14 nM.

Compound `CCCCC(=O)O[C@@H]1[C@@H](C)[C@@]2(O)[C@@H](C=C(CO)C[C@]3(O)C(=O)C(C)=C[C@@H]23)[C@@H]2C(C)(C)[C@]12OC(=O)CCCC` showed a Potency in test [3] of 0.067 nM. The same compound returned an inhibition constant Ki in test [2] of 0.54 nM.

Take `O=C(O[C@H]1CCC23CCCC[C@H](C=C(CO)C[C@H]12)C3=O)c1ccccc1`: the Ki in test [4] worked out at 165 nM.
